Publication PMC6571965, “Importance of the Proximity and Orientation of Ligand-Linkage to the Design of Cinnamate-GW9662 Hybrid Compounds as Covalent PPARγ Agonists” (Molecules, 2019)
“Also recorded” adds a separate entry of the source. Read-outs that look alike come from different tables or passages of the source.

Tests used:
[1] = molecular target: T1, human PPARγ LBD (Homo sapiens, UniProt P37231); design: expressed in transfected cells; host or cells: HepG2; method as in PMID 26414848; conditions: previously synthesized compound; read-out: EC50 value (partial agonistic activity); cited from earlier work
T1 sequence (P37231 238-503 limits assumed): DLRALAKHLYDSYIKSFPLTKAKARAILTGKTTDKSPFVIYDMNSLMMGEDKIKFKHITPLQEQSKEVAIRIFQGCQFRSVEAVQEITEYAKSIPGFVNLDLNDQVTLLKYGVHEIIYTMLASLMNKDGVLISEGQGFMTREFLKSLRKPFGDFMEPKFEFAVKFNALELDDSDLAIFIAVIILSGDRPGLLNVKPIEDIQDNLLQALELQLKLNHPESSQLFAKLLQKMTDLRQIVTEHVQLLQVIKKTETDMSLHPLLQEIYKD

[2] = molecular target: T2, recombinant PPARγ LBD (Cys285) (Homo sapiens, UniProt P37231); assay: Proteolytic mapping by MS/MS of ligand modification of PPARγ LBD; type: binding; conditions: PPARγ LBD 20 µM, ligand 40 µM, 30 min, trypsin digest
T2 construct: recombinant PPARγ LBD (2 µM) was mixed with various ligands; gift of Dr. Takuji Oyama (Yamanashi University)
T2 sequence (P37231 238-503 limits assumed): T1 sequence (P37231 238-503 limits assumed)
Excerpt: (§1) To assess the interactions between the receptor and the synthesized compounds, we initially validated the formation of a covalent bond with Cys285 by performing a rhodamine-maleimide assay. This assay can detect the presence of a covalent modification of Cys285 in the PPARγ LBD because it has only one cysteine residue in its sequences. […] To further confirm the covalent bonding of the synthesized compounds, we conducted proteolytic mapping studies via mass spectroscopy using 4a as a representative compound and 4b as a negative control. The complexes between recombinant PPARγ LBD and the test compounds were trypsinized and subjected to MALDI-TOF MS. Covalent binding of 4a (mass of 466.1 Da) to the PPARγ LBD is assumed to result in a mass change of 431.1 Da for the modified tryptic peptide. By comparison of the tryptic digests of PPARγ, with and without 4a, a candidate peptide containing the attachment site for 4a ([…], m/z 499.7492 Da) was detected by its mass shift to m/z 714.8080 Da (detected as double charged; Figure 3B).
LC-MS/MS detection was performed as previously described. Briefly, purified recombinant PPARγ LBD (20 µM) was incubated with ligands (40 µM) in 20 mM Tris-HCl, pH8.0, 150 mM NaCl, and 1 mM TCEP for 30 min. […]
. […] The calculated y- and b-ions of this peptide with observed ions underlined and the native or modified peptides detected in chromatogram are shown.

[3] = molecular target: T1, human PPARγ LBD; assay: Luciferase reporter assay after ligand withdrawal in HepG2 cells; conditions: 6 h treatment (troglitazone 10 μM; 4a, 4c 100 nM), washed, 24 h after withdrawal
Description: (§2) We first examined the relationship between covalent binding to the Cys285 residue and the agonist activity by a luciferase reporter gene assay using PPARγ mutants where the cysteine was substituted to an alanine (C285A). […] To examine this idea, we monitored the levels of luciferase activity upon withdrawal of the synthesized agonists.

[4] = molecular target: T1, human PPARγ LBD; assay: PPARγ reporter assay (GAL4 DNA-binding domain/PPARγ LBD chimera, pUAS-tk-Luc luciferase) in HepG2 cells; type: cell-based; design: expressed in transfected cells; host or cells: HepG2; conditions: for EC50 / PPARγ agonist activity (in words): HepG2 cells, pGal4-human PPARγLBD, 6 h treatment; for EC50: mean ± SD, read-out: EC50 (PPARγ agonist activity); for fold more potent than previously synthesized compound 3: PPARγ agonist activity, compared with 3
Description: PPARγ agonist activity was assessed by expression of a GAL4 DNA-binding domain/PPARγ LBD chimera protein using the plasmid pGAL4- PPARγ LBD and the luciferase reporter plasmid pUAS-tk-Luc containing the target sequence of GAL4 [20]. […] This supports our hypothesis that close proximity between the two fragments contributes to the improvement of binding affinity.
The PPARγ reporter assay was carried out as previously reported with slight modifications. pGal4-human PPARγLBD, pUAS-tk-luc and Renilla luciferase transfection control vector (pGL4.74, Promega, Madison, WI, USA) were transfected into HepG2 cells using Hily-max (Dojindo, Kumamoto, Japan) and PPARγ agonist activity was determined from the luciferase activity using the Dual-Luciferase Reporter Assay System (Promega) according to the manufacturer’s protocol.
Figure 2 Transactivation potentials of PPARγ by 4a, b, c, d, e, and 16. The luciferase reporter assay was performed in HepG2 cells transiently cotransfected with pGal4-humanPPARγLBD plasmid, pUAS-tk-Luc reporter, and pGL4.74[hRluc/TK] (Promega). Firefly luciferase activities were normalized to Renilla luciferase activities. Vehicle control data are denoted as 1. […] All the results are presented as the mean ± SD (n = 3) of three independent experiments. * p < 0.001, compared with vehicle control.

[5] = molecular target: T3, human PPARγ LBD C285A mutant (Homo sapiens, UniProt P37231, C313A); assay: Luciferase reporter gene assay with C285A mutant of pGal4-humanPPARγLBD in HepG2 cells; conditions: 6 h, troglitazone 10 μM
T3 sequence (P37231 232-505 C313A): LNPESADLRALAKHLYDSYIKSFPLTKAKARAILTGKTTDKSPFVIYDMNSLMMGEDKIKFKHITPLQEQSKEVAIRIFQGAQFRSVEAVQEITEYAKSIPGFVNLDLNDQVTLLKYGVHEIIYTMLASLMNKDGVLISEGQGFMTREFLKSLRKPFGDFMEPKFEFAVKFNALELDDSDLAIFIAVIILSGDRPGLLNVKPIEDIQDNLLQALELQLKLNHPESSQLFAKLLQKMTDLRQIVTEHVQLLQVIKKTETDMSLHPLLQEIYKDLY
Description: as §2

[6] = molecular target: T2, recombinant PPARγ LBD (Cys285); assay: Rhodamine-maleimide assay for covalent modification of Cys285; type: binding; conditions: PPARγ LBD 2 µM, 30 min incubation at room temperature
Excerpt: as §1
Rhodamine-Maleimide assay was performed as previously described. Briefly, recombinant PPARγ LBD (2 µM) was mixed with various ligands at the indicated concentrations in 20 mM Tris-HCl, pH8.0, 150 mM NaCl, and 1 mM tris(2-carboxylethyl)phosphine (TCEP). The mixture was incubated for 30 min at room temperature. SDS was added to the reaction mixture to a final concentration of 0.5%, followed by rhodamine red C2 maleimide (Life Technologies, Carlsbad, CA, USA) at a final concentration of 1 mM. After incubation at room temperature for 30 min, samples were treated with SDS-PAGE sample buffer containing β-mercaptoethanol for 30 min at 55 °C and were separated by SDS-PAGE. Fluorescent signals were visualized using the LAS1000 plus image analyzer (Fujifilm, Tokyo, Japan).
. (B), (C) Detection of covalent binding of 4a to Cys285 in the PPARγ LBD by ESI-MS/MS analysis. Fragmentation pattern of peptide […] was obtained from the trypsin digest. The calculated y- and b-ions of this peptide with observed ions underlined and the native or modified peptides detected in chromatogram are shown.

Row | Structure (SMILES) | EC50 [4] | fluorescence of rhodamine-labeled PPARγ LBD (covalent bond with Cys285) [6] | PPARγ agonist activity (in words) [4] | also measured
1 | CCOC(=O)/C=C/c1ccc(OCCc2cccc(NC(=O)c3cc([N+](=O)[O-])ccc3Cl)c2)cc1 [Compound 3] | – | – | – | EC50 [1]: 14 nM
2 | CCOC(=O)/C=C/c1ccc(Oc2cccc(NC(=O)c3cc([N+](=O)[O-])ccc3Cl)c2)cc1 [Compound 4a, (E)-Ethyl 3-{4-[3-(2-chloro-5-nitrobenzamido)phenoxy]phenyl}acrylate] | 5.13 ± 0.45 nM | decrease of labeled PPARγ LBD was also found | – | covalent adduct with Cys285 detected by mass shift of tryptic peptide IFQGCQFR [2]: identified as the Cys285 residue; luciferase transcription activity after withdrawal of ligand [3]: sustained transcription activity 24 h after withdrawal; fold more potent than previously synthesized compound 3 [4]: about 3 fold; transactivation in the C285A mutant [5]: did not show the transactivation
3 | CCOC(=O)/C=C/c1ccc(Oc2cccc(NC(=O)c3cccc([N+](=O)[O-])c3)c2)cc1 [Compound 4b, (E)-Ethyl 3-{4-[3-(3-nitrobenzamido)phenoxy]phenyl}acrylate] | – | decrease of fluorescence was not observed | had no agonist activity | covalent adduct with Cys285 detected by mass shift of tryptic peptide IFQGCQFR [2]: these mass shifts were not exhibited
4 | CCOC(=O)/C=C/c1ccc(Oc2ccccc2NC(=O)c2cc([N+](=O)[O-])ccc2Cl)cc1 [Compound 4c, (E)-Ethyl 3-{4-[2-(2-chloro-5-nitrobenzamido)phenoxy]phenyl}acrylate] | 4.11 ± 0.13 nM | decrease of labeled PPARγ LBD was also found | – | luciferase transcription activity after withdrawal of ligand [3]: sustained transcription activity 24 h after withdrawal; fold more potent than previously synthesized compound 3 [4]: about 3 fold; transactivation in the C285A mutant [5]: did not show the transactivation
5 | CCOC(=O)/C=C/c1ccc(Oc2ccc(NC(=O)c3cc([N+](=O)[O-])ccc3Cl)cc2)cc1 [Compound 4d, (E)-Ethyl 3-{4-[4-(2-chloro-5-nitrobenzamido)phenoxy]phenyl}acrylate] | – | showed the decrease of fluorescence | completely abolished; also recorded: exhibited no agonistic activity | –
6 | CCOC(=O)CCc1ccc(Oc2cccc(NC(=O)c3cc([N+](=O)[O-])ccc3Cl)c2)cc1 [Compound 4e, Ethyl 3-{4-[3-(2-chloro-5-nitrobenzamido)phenoxy]phenyl}propanoate] | 2.54 ± 1.3 nM | – | – | –
7 | CCOC(=O)/C=C/c1ccc(OCCc2ccc(NC(=O)c3cc([N+](=O)[O-])ccc3Cl)cc2)cc1 [Compound 16, (E)-Ethyl 3-(4-{2-[4-(2-chloro-5-nitrobenzamido)phenyl]ethoxy}phenyl)acrylate] | – | showed the decrease of fluorescence | disappearance of activity; also recorded: exhibited no agonistic activity | –
8 | O=C(Nc1ccccc1)c1cc([N+](=O)[O-])ccc1Cl [GW9662] | – | decreased | – | –
